Turning to `c1ccc(-c2ccnc3ccnn23)cc1`, the melting point (in general, the temperature, or range, at which the solid turns liquid) fell in the range of 72 to 73 °C.

Consider `CC(c1ccc(OCc2ccc(Cl)cc2Cl)cc1)n1ccnc1` (centres undefined), for which the melting point was 103 to 106 °C.

Compound `OC(CNC1CCc2ccccc2C1)COc1ccc2ccccc2c1` (centres undefined) yielded a melting point of 102 to 115 °C.

`COC(=O)Cc1nc2cc(OC)c(OC)cc2c(-c2ccc(OC)c(OC)c2)c1C(=O)OC` had a melting point of 170 to 171 °C.

The compound `CC1CCCN1CCN1C=c2ccc(=c3ccc4c(c3)CCN(C)C=4)cc2CC1` (centres undefined) came in with a melting point of more than 270 °C.

`CN1CCN(c2cccc3c2C[C@H](NC(=O)c2ccc(N4CCOCC4)cc2)CC3)CC1`: the melting point was 230 to 231 °C.

With `O=CNC1=NN(c2cccc(Cl)n2)CC1`, the melting point lay within 190 to 192 °C.

`Nc1cccc(-c2ccc(CCN3CCN(C(=O)C4CCCC4)CC3)cc2)n1` came in with a melting point of 185 to 187 °C.

Take `CCOC(=O)c1cnc2c(c1O)CCCCCC2`: the melting point lay in the range of 219 to 222 °C.

For `CCCCCCC(C(=O)O)n1cnc(NC(=O)C2(O)c3ccccc3-c3ccccc32)c1` (centres undefined), the melting point was 128 °C.

For `CC(=O)c1ccc(NC(=O)c2ccc(C3OCC(SC(C)C(O)(Cn4cncn4)c4ccc(F)cc4F)CO3)cc2)cc1` (centres undefined), the melting point came out at 171 °C.

The compound `CCCCc1ncc(C=C2C(=O)Nc3ccccc32)n1Cc1ccc(C(=O)O)cc1` yielded a melting point of 237 to 238 °C.

Consider `CC(C)(C)c1cc(C(C)(CCC(=O)O)c2ccc(O)c(C(C)(C)C)c2)ccc1O`, for which the melting point amounted to 155 °C.

In turn, `O=C(O)Cc1nn(-c2ccccn2)c2[nH]c3ccccc3c(=O)c12` displayed a melting point of 229 to 231 °C.

Turning to `COc1nc(C)cnc1NS(=O)(=O)c1cccnc1-c1ccc(N(C)C)cc1`, the melting point is 183 to 184 °C.

Consider `Cc1nn(C2=C(F)CC(F)(C#N)C=C2)c(=O)[nH]c1=O` (centres undefined), for which the melting point amounted to 214 °C.

Compound `CCOC(=O)C(C)Oc1cc(-n2c(=O)cc(C(F)(F)F)n(C)c2=O)c(F)cc1Cl` (centres undefined) displayed a melting point of 72 to 74 °C.

`CNc1c(NCCNCc2ccc(CN3CCCCC3)o2)c(=O)c1=O` returned a melting point of 145 to 147 °C.

Take `CSC(=NC(=O)N(C)C)NC(=O)N(C)C`: the melting point lay in the range of 116 to 118 °C.

The compound `CC(C)Oc1nc(N)nc2[nH]cnc12` returned a melting point of 204 to 206 °C.

Take `CCN(CC)CCCNc1ncc2cc(-c3c(Cl)cccc3Cl)c(NC(=O)NC(C)C)nc2n1`: the melting point lay within 88 to 100 °C.

For `Nc1ccc(C(=O)c2cccnc2)cc1`, the melting point came to 107 °C.

The compound `CCc1ccc(-c2ccc(C(=O)Nc3ccc4cc(CN5CCCC5)cnc4c3C)c(F)c2)cc1` displayed a melting point of 178 to 179 °C.

`CC1(C)CC(N(C=O)C2CCCCC2)CC(C)(C)N1` yielded a melting point of 105 °C.

As for `CCc1noc(C)c1-c1[nH]c2ccccc2c1C(O)CCN(C)C` (centres undefined), the melting point lay in the range of 166 to 169 °C.

With `C(=C\c1nc(COc2ccc(CCCn3nccn3)cc2)co1)/c1ccccc1`, the melting point was in the range of 103 to 104 °C.

`CC(C)(C)OC(=O)NCCC[C@@H](CO)NC(=O)OCC1c2ccccc2-c2ccccc21` gave a melting point of 107 to 109 °C.

`CCC(O)(CC)c1ccc(-c2cccc(OCc3ccc(CO)c(CO)c3)c2C)c(C)c1`: the melting point fell in the range of 81 to 82 °C.

Take `COC(=O)c1ccsc1`: the melting point lay in the range of 84 to 85 °C.

As to `COC(=O)C(OC)C(=O)Nc1cc(Cl)cc(Cl)c1` (centres undefined), the melting point was 116 to 118 °C.

As to `Cc1sc2ccccc2c1C=O`, the melting point was in the range of 95 to 96 °C.

Take `COC(=O)C1=C(C)NC(C)=C(S(C)(=O)=O)C1c1ccccc1[N+](=O)[O-]` (centres undefined): the melting point was 211 to 212 °C.

With `O=C(O)Cc1cc(C(=O)c2ccc(Cl)cc2)sc1-c1ccccc1`, the melting point was 142 to 143 °C.

The compound `O=C1NC(=O)C2CCCC12` (centres undefined) displayed a melting point of 89 °C.

For `Cc1c(Cc2cccc(C(F)(F)F)c2)oc2c(-c3cc(C(=O)NCCC#N)ccn3)cccc12`, the melting point fell in the range of 200 to 201 °C.

The compound `O=C(Nc1cccc(C2CN3CCSC3=N2)c1)c1ccc(Br)nc1` (centres undefined) came in with a melting point of 149 to 153 °C.

Turning to `O=C(O)c1ccc(Cl)cc1Nc1ccc(O)cc1`, the melting point was 164 to 165 °C.

Take `COc1ccc(C2(C#N)CCC(=CC(=O)O)CC2)c2c1OCCO2` (centres undefined): the melting point was in the range of 203 to 204 °C.

In turn, `COCc1nnc(-c2cccnc2)n1-c1c(C)c(Cl)cc2[nH]c(=O)c(=O)[nH]c12` returned a melting point of more than 300 °C.

As to `Cc1csc2[nH]c(C(=O)c3ccccc3)cc12`, the melting point was found to be 199 °C.

`COc1ccc2c(N=O)c(O)ccc2c1`: the melting point lay in the range of 147 to 148 °C.

`CCCCCCCCCCCCc1cc2cc(C(=O)OCCCC)ccc2[nH]1` had a melting point of 74 to 76 °C.

`CC1=C(c2ccnnc2)SCC(=O)N1` had a melting point of 231 to 233 °C.

On to `Nc1ccccc1CNC(=O)C1Cc2ccccc2N1S(=O)(=O)c1ccc(-c2ccc(F)cc2Cl)cc1` (centres undefined), for which the melting point fell in the range of 85 to 90 °C.

In the case of `CC(=O)N(O)C(C)c1ccc2c(c1)oc1ccccc12` (centres undefined), the melting point lay in the range of 132 to 135 °C.

Regarding `CCN1c2ncccc2C(=NC#N)Nc2c(C)cc(C)nc21`, the melting point was in the range of 230 to 233 °C.

As to `CCOc1nc(C(=O)O)ccc1C#N`, the melting point fell in the range of 185 to 190 °C.

The compound `COC(=O)C(Cl)=Cc1ccc(OC)cc1` registered a melting point of 68 to 70 °C.

Turning to `CC1=Nc2ccccc2CC(c2ccsc2)N1C` (centres undefined), the melting point was 113 to 117 °C.

On to `CC(=O)N1CCNC1=Nc1ccc(Cl)cc1Cl`, for which the melting point fell in the range of 168 to 169 °C.

In turn, `COc1cc2c(N)nc(N3CCN(c4nc5cccccc-5n4)CC3)nc2c(OC)c1OC` gave a melting point of 284 to 285 °C.

In turn, `CNC(=O)CN1CCc2cc(Nc3ncc(Cl)c(N[C@@H]4CCCC[C@H]4NS(C)(=O)=O)n3)c(OC)cc2CC1` registered a melting point of 92 to 104 °C.

As to `Cc1[nH]c2ccc(Cl)cc2c1C(C(=O)C1(Cl)C=CC=CC1)c1cc(=O)n(C2CCCCC2)[nH]1` (centres undefined), the melting point is 121 °C.

`C=CCN1C2C=C(c3cc4ccccc4s3)CC1CC2` (centres undefined) came in with a melting point of 60.6 to 62.6 °C.

Turning to `O=C(Nc1cnc(-c2ccccc2)[nH]c1=O)OCc1ccccc1`, the melting point was 217 to 219 °C.

Consider `CN(C)c1ccccc1SCc1noc(CSc2ccc(Br)cc2)n1`, for which the melting point came to 78 °C.

`CC(C)OC(=O)COc1ccc(C(=O)CN2CCN(c3ccncc3)CC2)cc1` gave a melting point of 64 to 66 °C.

`O=C(O)C1=Cc2cc(Cl)ccc2OC1C(F)(F)F` (centres undefined) registered a melting point of 181 to 184 °C.

For the compound `O=C(NCc1ccccn1)c1cc(N2CCN(Cc3ccc(F)cc3)C2=O)n[nH]1`, the melting point lay within 235 to 237 °C.

In the case of `CN(C)Cc1ccc(CSCCNC(=C[N+](=O)[O-])NCCSCc2ccc(CN(C)C)o2)o1`, the melting point was in the range of 58 to 62 °C.

For `COc1ccc([C@@H]2OC(=O)N[C@@H]2Cc2ccc(C(F)(F)F)cc2)cc1` (racemic), the melting point fell in the range of 164 to 165 °C.

For the compound `CCN(CC)c1ccc2c(c1)Oc1cc(OC)c(N(c3ccccc3)c3ccccc3)cc1C2c1ccccc1C(=O)OC` (centres undefined), the melting point is 117 to 119 °C.

In the case of `Cc1ccc(-c2cccc(/C=C/C(=O)Nc3ccc(Cc4ccccn4)cc3)c2)cc1`, the melting point lay within 169 to 171 °C.

In turn, `CS(=O)(=O)Nc1ccc(N2CCN(c3cc([N+](=O)[O-])ccn3)CC2)cc1` returned a melting point of 182 to 183 °C.

`CCOC(=O)c1cc2c(Cl)ccc(N(C)S(=O)(=O)c3cccs3)c2n1COC` yielded a melting point of 137 to 138 °C.

With `CCc1nnc2ccc(-c3ccccc3)nn12`, the melting point lay in the range of 133 to 135 °C.

As for `Cc1cc(-c2cnn3c(C(F)(F)F)cc(-c4ccc(C(F)(F)F)c(OCC(F)(F)F)c4)nc23)ccn1`, the melting point worked out at 201 °C.

`CCOC(=O)c1cc2cccc(N(C)C(=O)c3cccs3)c2[nH]1` displayed a melting point of 193 °C.

Take `CCOC(=O)c1cn(C2CC2)c2c(F)c(-c3cc(C)nc(C)c3)c(F)cc2c1=O`: the melting point was in the range of 186 to 187 °C.

On to `CCCCCCOc1nc(N)nc2c1ncn2C1C=CC(CO)C1` (centres undefined), for which the melting point is 90 to 92 °C.

In the case of `Nc1cccc(Cn2c(-c3ccc(NC(=O)c4cccc(Br)c4)cc3)ccc2-c2ccccc2Cl)n1`, the melting point lay within 116 to 122 °C.

`Fc1cccc(-c2ncc(-c3cnc(-c4cccnc4)[nH]3)cn2)c1`: the melting point was 309 °C.

As for `CC12CCC3c4ccc(C(=O)O)cc4CCC3C1CCC2C(=O)c1cccs1` (centres undefined), the melting point lay in the range of 177 to 179 °C.

Compound `O=C(c1ccc(CN2CC=CCC2)cc1)N1CCN2C(=O)OC(c3ccccc3)(c3ccccc3)C2C1` (centres undefined) returned a melting point of 189 to 191 °C.

Consider `CCCc1c(OCc2ccc(C(=O)O)cc2OCC)ccc(C(C)=O)c1O`, for which the melting point was in the range of 152 to 153 °C.

For the compound `CN(c1nnc(C(F)(F)F)s1)C1CCN(Cc2cccc(F)c2)CC1`, the melting point came out at 80.5 °C.

As to `CC(=O)SCC(C(=O)NC(CC(=O)O)Cc1ccccc1)C(F)(F)F` (centres undefined), the melting point lay within 171 to 172 °C.

In turn, `O=[N+]([O-])C=C1NCCN1Cc1ccno1` yielded a melting point of 156 to 158 °C.

`O=C1CSCc2cc(Cl)ccc21`: the melting point was in the range of 79.5 to 82 °C.

Compound `CC(=O)c1ccc2oc3ncccc3c(=O)c2c1` displayed a melting point of 195 to 196 °C.

With `CC(=O)N(O)Cc1ccc(C(O)C#Cc2cccs2)cc1` (centres undefined), the melting point is 125 to 126 °C.

As to `CCCc1nc2c(N)nc3cc(OCCOCCNC(=O)OC(C)(C)C)ccc3c2s1`, the melting point lay in the range of 111 to 113 °C.

Take `CCOC(=O)c1ccc(N2Cc3ccccc3C2=O)cc1`: the melting point is 182 to 184 °C.

With `CS(=O)(=O)Nn1c(=O)[nH]c2cc(C(F)(F)F)c(N3CCC(=O)CC3)cc2c1=O`, the melting point is 238 to 242 °C.

Compound `O=C(OCCOc1ccc(OCCO)cc1)c1ccc(O)c(Cl)c1` had a melting point of 87 to 88 °C.

The compound `O=C(CCC1CCN(C(=O)OCc2ccc([N+](=O)[O-])cc2)CC1)c1ccc2c(c1)CN1C(=O)c3ccccc3C1CC2` (centres undefined) came in with a melting point of 179 to 181 °C.

Compound `COc1c(C2CCN(CCCCNC(=O)c3ccc(-c4ccc(NC(=O)C(F)(F)F)cc4)cc3)CC2)ccc2c1CCCC2` displayed a melting point of 226 to 228 °C.

The compound `O=C1CC2(CCCC2)C(O)C(=O)N1CCCCN1CCN(c2ncccn2)CC1` (centres undefined) yielded a melting point of 110 °C.

`COc1cccc(OC)c1CNC(=O)c1ccc2cnccc2n1`: the melting point fell in the range of 169 to 171 °C.
